Where a name gives a salt, the structure may show the parent alone.
Columns and labels:
[1] = molecular target: T1, native human transporter glyt1 (Homo sapiens, UniProt P48067); assay: Glycine transportation ([14C]glycine uptake) in SK-N-MC cells expressing the native human transporter glyt1; assay type: cell-based; details: 10 μM [14C]glycine, 10 minutes at 37° C., read-out: IC50, concentration of compound that reduces by 50% the specific uptake of glycine
T1 construct: SK-N-MC cells (human neuroepithelial cells) expressing the native human transporter glyt1; endogenous in cells; host or cells: SK-N-MC cells (human neuroepithelial cells)
T1 sequence (P48067 1-706): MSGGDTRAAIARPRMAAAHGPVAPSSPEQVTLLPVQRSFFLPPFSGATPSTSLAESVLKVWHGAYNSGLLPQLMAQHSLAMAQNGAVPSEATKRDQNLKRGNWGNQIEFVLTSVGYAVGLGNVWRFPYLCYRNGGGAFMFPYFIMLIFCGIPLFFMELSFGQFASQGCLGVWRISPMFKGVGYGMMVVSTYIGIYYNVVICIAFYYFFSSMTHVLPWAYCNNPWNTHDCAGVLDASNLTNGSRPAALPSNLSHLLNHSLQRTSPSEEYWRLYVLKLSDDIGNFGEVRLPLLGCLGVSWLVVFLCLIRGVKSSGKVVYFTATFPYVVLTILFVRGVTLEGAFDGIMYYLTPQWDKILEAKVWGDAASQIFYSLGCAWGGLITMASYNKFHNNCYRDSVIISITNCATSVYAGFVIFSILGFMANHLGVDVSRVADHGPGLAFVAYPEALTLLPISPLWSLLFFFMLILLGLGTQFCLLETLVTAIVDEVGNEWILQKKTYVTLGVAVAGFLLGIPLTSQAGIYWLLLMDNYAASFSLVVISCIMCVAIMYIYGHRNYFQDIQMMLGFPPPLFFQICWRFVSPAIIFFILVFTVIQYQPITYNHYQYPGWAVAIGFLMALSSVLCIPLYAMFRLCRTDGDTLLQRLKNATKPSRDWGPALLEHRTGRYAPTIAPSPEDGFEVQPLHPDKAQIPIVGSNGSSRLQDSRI
Procedure: Study of Glycine Transportation in SK-N-MC Cells Expressing the Native Human Transporter glyt1
The uptake of [^14C]glycine is studied in SK-N-MC cells (human neuroepithelial cells) expressing the native human transporter glyt1 by measuring the radioactivity incorporated in the presence or absence of the test compound. The cells are cultured as a monolayer for 48 hours in plates pretreated with 0.02% fibronectin. On the day of the experiment, the culture medium is removed and the cells are washed with Krebs-HEPES buffer ([4-(2-hydroxyethyl)-1-piperazineethanesulfonic acid) at pH 7.4. After preincubation for 10 minutes at 37° C. in the presence either of buffer (control batch) or of test compound at various concentrations or of 10 mM glycine (determination of the nonspecific uptake), 10 μM of [^14C]glycine (specific activity 112 mCi/mmol) are then added.
Incubation is continued for 10 minutes at 37° C., and the reaction is quenched by washing twice with pH 7.4 Krebs-HEPES buffer. The radioactivity incorporated by the cells is then estimated after adding 100 μl of liquid scintillant and stirring for 1 hour. Counting is performed on a Microbeta Tri-Lux™ counter. The efficacy of the compound is determined by means of the IC50, which is the concentration of compound that reduces by 50% the specific uptake of glycine, defined by the difference in radioactivity incorporated by the control batch and the batch that received 10 mM of glycine.

transporter glyt2 = molecular target: T2, transporter glyt2 (Mus musculus, UniProt Q761V0); assay: Glycine transportation ([14C]glycine uptake) in mouse spinal cord homogenate; assay type: biochemical; details: 10 μM [14C]glycine, 10 minutes at 25° C., read-out: IC50, concentration capable of reducing by 50% the specific uptake of glycine
T2 construct: from tissue; host or cells: spinal cord of male OF1 Iffa Credo mice
T2 sequence (Q761V0 1-799): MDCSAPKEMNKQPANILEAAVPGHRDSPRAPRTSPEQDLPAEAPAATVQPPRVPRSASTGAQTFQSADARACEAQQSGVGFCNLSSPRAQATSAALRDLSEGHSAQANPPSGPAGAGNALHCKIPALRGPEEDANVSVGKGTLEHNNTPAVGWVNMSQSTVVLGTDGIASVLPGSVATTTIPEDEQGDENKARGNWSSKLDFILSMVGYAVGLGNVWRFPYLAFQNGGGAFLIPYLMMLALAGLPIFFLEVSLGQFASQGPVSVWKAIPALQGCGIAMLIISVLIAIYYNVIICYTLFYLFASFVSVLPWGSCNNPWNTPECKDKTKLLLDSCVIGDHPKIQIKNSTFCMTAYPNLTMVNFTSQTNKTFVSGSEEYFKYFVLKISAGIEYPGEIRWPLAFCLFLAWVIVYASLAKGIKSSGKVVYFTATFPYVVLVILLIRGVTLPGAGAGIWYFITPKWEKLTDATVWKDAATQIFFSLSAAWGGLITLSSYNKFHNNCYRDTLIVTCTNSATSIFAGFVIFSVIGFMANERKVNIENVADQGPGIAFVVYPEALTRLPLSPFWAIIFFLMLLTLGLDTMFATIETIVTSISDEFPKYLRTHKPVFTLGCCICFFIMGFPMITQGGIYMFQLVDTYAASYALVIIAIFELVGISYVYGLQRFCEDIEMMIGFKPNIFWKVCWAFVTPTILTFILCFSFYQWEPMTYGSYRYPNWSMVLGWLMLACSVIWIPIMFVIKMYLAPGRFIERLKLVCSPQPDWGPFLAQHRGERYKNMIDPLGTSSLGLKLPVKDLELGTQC
Description: Study of the Glycine Transportation in Mouse Spinal Cord Homogenate
The uptake of [^14C]glycine by the transporter glyt2 is studied in mouse spinal cord homogenate by measuring the radioactivity incorporated in the presence or absence of test compound.
After euthanizing the animals (male OF1 Iffa Credo mice weighing 20 to 25 g on the day of the experiment), the spinal cord of each animal is rapidly removed, weighed and stored on ice. The samples are homogenized in pH 7.4 Krebs-HEPES buffer ([4-(2-hydroxyethyl)-1-piperazineethanesulfonic acid), in a proportion of 25 ml/g of tissue.
50 μl of homogenate are preincubated for 10 minutes at 25° C. in the presence of pH 7.4 Krebs-HEPES buffer and of test compound at various concentrations, or of 10 mM of glycine to determine the nonspecific uptake. [^14C]glycine (specific activity=112 mCi/mmol) is then added over 10 minutes at 25° C. to a final concentration of 10 μM. The reaction is quenched by vacuum filtration and the radioactivity is estimated by solid scintillation by counting on a Microbeta Tri-Lux™ counter. The efficacy of the compound is determined by means of the IC50, the concentration capable of reducing by 50% the specific uptake of glycine, defined by the difference in radioactivity incorporated by the control batch and the batch that received 10 mM of glycine.

| IC50 [1] | IC50 (transporter glyt2) | SMILES |
| --- | --- | --- |
| 510 nM | 120 nM | CC1CCCC(C(NC(=O)c2cccc(C(F)(F)F)c2Cl)c2ccccc2)N1C (stereo not drawn) [Compound 1, Cis-threo-2-chloro-N-[(1,6-dimethyl-2-piperidyl)(phenyl)methyl]-3-(trifluoromethyl)benzamide hydrochloride 1:1] |
| 100 nM | – | CC1CCC(C(NC(=O)c2cccc(C(F)(F)F)c2Cl)c2ccc(F)cc2)N(C)C1 (stereo not drawn) [Compound 5, Trans-threo-2-chloro-N-[(1,5-dimethyl-2-piperidyl)(4-fluorophenyl)methyl]-3-(trifluoromethyl)benzamide hydrochloride 1:1] |
| 90 nM | 70 nM | CC1CCN(C)C(C(NC(=O)c2cccc(C(F)(F)F)c2Cl)c2ccccc2)C1 (stereo not drawn) [Compound 9, Cis-threo-2-chloro-N-[(1,4-dimethyl-2-piperidyl)(phenyl)methyl]-3-(trifluoromethyl)benzamide hydrochloride 1:1] |
| 8 nM | – | CN1CCCCC1(C)C(NC(=O)c1cccc(C(F)(F)F)c1Cl)c1ccccc1 (stereo not drawn) [Compound 10, Threo-2-chloro-N-[(1,2-dimethyl-2-piperidyl)(phenyl)methyl]-3-(trifluoromethyl)benzamide hydrochloride 1:1] |
